Earlier results in patent US20260174720A1, “NERVONIC ACID COMPOSITION FOR IMPROVING MEMORY-BASED LEARNING FUNCTION AND A PREPARATION METHOD THEREOF” (Guangzhou Decade Nutrition Technology Co., Ltd., priority 2024, published 2026).

**Q.** For `CCCCCCCC/C=C\CCCCCCCCCCCCCC(=O)O` [Nervonic acid, cis-15-Tetracosenic Acid], which “solubility in alcohols such as methanol, ethanol” value is on record?
**A.** soluble in alcohols

**Q.** What about the solubility in water (room temperature) of the same molecule?
**A.** insoluble in water
